Measurements as given in patent US20050014690A1, “Styryl acrylonitrile compounds and their use to promote myelopoiesis” (priority 2001, published 2005).
“Also recorded” adds a separate entry of the source.

Key:
normal bone marrow cells [1] = assay: CFU-GEMM colony assay, normal bone marrow, compound present for 14 days; type: cell-based, human; conditions: for toxicity to normal bone marrow cells: until concentrations of 20 μM or greater; for number of CFU-GM or CFU-C colonies: in vitro assays of human bone marrow cell growth, continual exposure for 14 days, about 1-20 μM
Protocol: Treatment of normal bone marrow in culture with CR4. The CFU-GEMM assay was performed according to Fauser and Messner (Blood, 52(6) 1243-8,1978) and Messner and Fausser (Blut 41(5) 327-33, 1980) with some variations. In brief, heparinized bone marrow cells were layered over Percoll (1.077 gm/ml) and centrifuged at 400 g at 4° C. for 10 minutes to remove neutrophils and RBCs. The fractionated BM cells at 2×10^5 cells/ml were cultured in IMDM containing 0.9% (vol/vol) methylcellulose supplemented with 30% FCS or normal human plasma, a cocktail of cytokines containing G-CSF (10 ng/ml), IL-3 (40 U/ml), MGF (50 ng/ml), Erythropoietin (2u/ml) or TPO (10 ng/ml) and 5×10^−5M μ-2-mercaptoethanol. CR4 was added to the cells in concentrations indicated in FIG. 1 and the culture mixture was plated in 1 ml volumes into 35 mm petri dishes and incubated at 37° C., 5% CO2 in a humidified atmosphere. All cultures were evaluated at 14 days for the number of BFU-E colonies (defined as aggregates of more than 500 hemaglobinized cells or, 3 or more erythroid subcolonies), CFU-C colonies (defined as granulocyte or monocyte-macrophage cells or both), and CFU-GEMM colonies (a mixed population comprising of all elements). All control samples in this and other examples were treated with the matching concentration of the solvent (DMSO) for the compounds in the same medium or in the case of Example 21, PBS, as indicated. CFU-C stimulation with CR4 dose response. Bone marrow cells were prepared as in Example 15. CR4 was added to the cells at 10 or 20 μM. The culture mixture was plated in 1 ml volumes into 35 mm petri dishes and incubated at 37° C., 5% CO2 in a humidified atmosphere. All cultures were evaluated at 14 days for the number of CFU-C colonies (defined as granulocyte or monocyte-macrophage cells or both). […] Stimulation of CFU-C colony formation by CR11. Bone marrow cells were prepared as in Example 15. CR11 was added to the cells at 10 or 20 μM. The culture mixture was plated in 1 ml volumes into 35 mm petri dishes and incubated at 37° C., 5% […] in a humidified atmosphere. All cultures were evaluated at 14 days for the number of CFU-C colonies. […] CFU-C stimulation with CR19 dose response. Bone marrow cells were prepared as in Example 15. The culture mixture was plated in 1 ml volumes into 35 mm petri dishes and incubated at 37° C., 5% CO2 in a humidified atmosphere. All cultures were evaluated at 14 days for the number of BFU-E and CFU-C colonies.

normal bone marrow cells [2] = assay: CFU-C colony formation after short high dose exposure (2.5-5 hours), wash-out, 14 day culture; type: cell-based, human
Protocol: Stimulation of CFU-C colony formation with high dose CR4 for 2.5 hours. Bone marrow cells were layered over Percoll and centrifuged at 400 g at 4° C. for 10 minutes to remove neutrophils and RBCs. The cells were resuspended at 1×10^6/ml in complete medium with or without 50 μM CR4. The cells were incubated with the compound for two and a half hours at 37° C., 5% CO2. At the end of this period the cells were thoroughly washed in medium to remove CR4 and then cultured at 2×10^5 cells/ml in IMDM containing 0.9% (vol/vol) methylcellulose supplemented with 30% FCS or normal human plasma, and a cocktail of cytokines containing G-CSF (10 ng/ml), IL-3 (40 U/ml,), MGF (50 ng/ml), Erythropoietin or TPO and 5×10^−5M μ-2-mercaptoethanol. The culture mixture was plated in 1 ml volumes into 35 mm petri dishes and incubated at 37° C., 5% CO2 in a humidified atmosphere. All cultures were evaluated at 14 days for the number of CFU-C colonies. […] Stimulation of CFU-C colony formation with high dose CR4 for 2.5 and 5 hours. Bone marrow cells were prepared and treated as in Example 19, except exposure times of 2.5 and 5 hours were evaluated. The culture mixture was plated in 1 ml volumes into 35 mm petri dishes and incubated at 37° C., 5% CO2 in a humidified atmosphere. All cultures were evaluated at 14 days for the number of CFU-GM colonies (defined as granulocyte or macrophage cells or both). […] Stimulation of CFU-C colony formation with high dose CR4—two independent bone marrow samples (A&B). Bone marrow cells were prepared and treated as in Example 19, except that CR4 concentrations of 25 and 50 μM were evaluated. The culture mixtures was plated in 1 ml volumes into 35 mm petri dishes and incubated at 37° C., 5% CO2 in a humidified atmosphere. All cultures were evaluated at 14 days for the number of CFU-C colonies.

[3] = tested on: CD34+ multipotent stem cells; assay: CFU-C colony formation from CD34+ selected stem cells; type: cell-based, human
[4] = tested on: normal bone marrow mononuclear cells; assay: Long-term culture-initiating cell (LTC-IC) assay on stroma after pre-incubation; type: cell-based, human; conditions: for myeloproliferation in long-term cultures: pre-incubated with 50 uM for 5 hours, FIG. 11
Description: The long-term BM culture system provides the means to investigate the proliferation and differentiation properties of primitive hematopoietic cells. To assess the long-term effects of CR4 on early progenitor cells the long-term culture-initiating cell (LTC-IC) assay was set up utilizing stromal microenvironment. Briefly, to obtain stromal cells bone marrow mononuclear cells were suspended in long-term culture (LTC) media (MyeloCult Stem Cell Technologies Inc.) supplemented with 10^−6 mol/L hydrocortisone sodium succinate (HSS; Sigma Aldrich Canada Ltd., Mississauga, Ont.,Canada). Approximately 1×10^7 cells were plated into 25 cm^2 tissue culture flasks (Becton Dickinson Labware, Franklin Lakes, N.J., USA) and incubated for 3 days at […] in a humidified atmosphere with 5% CO2 followed by incubation at 33° C. Cultures were re-fed weekly by replacing half of the medium. Following stromal confluency (3-6 weeks) cells were trypsinized and irradiated (1,500 cGy) using a Cs source. Stromal cells were again replated in LTC media at a concentration of 0.5-1.0×10^6 cells per 35 mm culture dishes (Nunc-Gibco BRL, Gaithersburg, Md.). Subcultured stroma was incubated for 2-3 days (at greater than 70% confluency) prior to co-culturing with fresh non-adherent overlay of hematopoietic cells. Normal bone marrow mononuclear cells, purified by centrifugation on Percoll, at a concentration of 1×10^6 cells/ml were pre-incubated with 50 uM CR4 or the drug diluent alone for a period of 5 hours at 37° C. in media. Cells were then washed twice to remove the compound and plated at 2×10^5 cells/ml for the short-term CFU-GEMM clonogenic assay (as previously described) while the remainder of the non-adherent cells were co-cultured with normal stroma (as described above) for long-term cultures. Long-term cultures were set up with two unrelated normal bone marrow samples (NBM1 and NBM2). Half of the non-adherent mononuclear cells were removed weekly from the stromal co-cultures and plated for colony-forming cells (CFU-GM) in the CFU-GEMM assay.

transformed cell = assay: Transformed cell growth; type: cell-based
mice [5] = assay: Granulocytes in the spleen of treated mice; type: in vivo; conditions: for normal splenic granulocytes: daily injection, SCI mouse model; for non-specific damage to the animal: doses required to promote myelopoiesis, one month of continual administration
mice [6] = assay: Peripheral white blood cell count in mice; type: in vivo; conditions: for white blood cells in the peripheral blood: SCI mouse model, similar kinetics to G-CSF treated mice; for white blood cell counts: mice injected daily, peripheral blood after 14 and 17 days, FIG. 9
Protocol: Promotion of peripheral white blood cell count by CR11. Mice were injected daily with CR11. 250 μl of 400 μM CR11 was injected in PBS. Controls were injected with matching concentrations of CR11 solvent (DMSO) in PBS, or recombinant human G-CSF. After 14 and 17 days blood peripheral blood samples were taken and white blood cell counts determined. Results from each group were averaged.

[7] = tested on: cells of the myeloid lineage; assay: Promotion of myelopoiesis (general statement); conditions: in vitro, ex vivo and in vivo

N#C/C(=C\C=C\c1ccc(O)c(O)c1)C(=O)NCc1ccccc1 [CR4, (E,E)-2-(Benzylaminocarbonyl)-3-(3,4-dihydroxystyryl)acrylonitrile]
CFU-C colony formation (normal bone marrow cells [1]; 10 μM, 14 days): significantly stimulated; also recorded: significantly increased | BFU-E colony formation (normal bone marrow cells [1]; 10 μM, 14 days, FIG. 1): some inhibition | CFU-C colony formation (normal bone marrow cells [1]; 20 μM, 14 days): equivalent to the control | toxicity to normal bone marrow cells (normal bone marrow cells [1]; 14 days): minimal toxicity | CFU-C colony numbers (normal bone marrow cells [1]; concentrations from about 0.6 to 10 μM, 14 days, FIG. 1): stimulated | toxicity upon normal bone marrow (normal bone marrow cells [1]; doses up to 5 μM, 14 days, FIG. 1): negligible toxicity | number of CFU-GM or CFU-C colonies (normal bone marrow cells [1]): effective in increasing | CFU-C colony formation (normal bone marrow cells [2]; 5 μM (so in the source), five hours exposure, FIG. 6): increased significantly | CFU-C colony formation (normal bone marrow cells [2]; 5 μM (so in the source), two and a half hours exposure, FIG. 6): increased significantly | CFU-C colony formation (normal bone marrow cells [2]; 25 μM, five hours exposure, bone marrow sample A, FIG. 7A): increased significantly | CFU-C colony formation (normal bone marrow cells [2]; 50 μM, five hours exposure, bone marrow sample A, FIG. 7A): increased significantly | CFU-C colony formation (normal bone marrow cells [2]; 50 μM, five hours exposure, other bone marrow sample, FIG. 7B): increased significantly | CFU-C colony formation (normal bone marrow cells [2]; 50 μM, two and a half hours exposure, FIG. 5): increased significantly | myelopoiesis when the cells are cultured (normal bone marrow cells [2]; 25-50 μM for 2-5 hours): increased myelopoiesis | other normal bone marrow cells (normal bone marrow cells [2]; same doses (25-50 μM) over the same period (2-5 hours)): relatively unaffected | formation of CFU-C colonies from CD34+ stem cells ([3]; concentrations from 2.5-7.5 μM, 14 days, FIG. 2): significantly increased | myeloproliferation with purified CD34+ and hematopoietic stem cells ([3]; short-term CFU-GEMM assay, FIG. 12): can be induced | number of CFU-GM in long-term cultures ([4]; 50 μM for 5 hours): significant increase | myeloproliferation in long-term cultures ([4]; NBM1): significant increase | myeloproliferation in long-term cultures ([4]; NBM2): significant increase | transformed cell growth (transformed cell): do not promote | normal splenic granulocytes (mice [5]): tremendous increase | non-specific damage to the animal (mice [5]): did not result in detectable non-specific damage | granulocytes in the spleen (mice [5]; mice, one month, subcutaneous osmotic pump, theoretical 200 μg/kg/hr, FIG. 10): Increase in granulocytes | white blood cells in the peripheral blood (mice [6]): Increased numbers | promoting myelopoiesis [7]: capable of promoting myelopoiesis

COc1cc(/C=C/C=C(C#N)C#N)cc(OC)c1O [CR7, (E,E)-2-cyano-3-(3,5-dimethoxy-4-hydroxystyryl)acrylonitrile]
promoting myelopoiesis [7]: capable of promoting myelopoiesis

COc1cc(/C=C/C=C(\C#N)C(=O)NCCc2ccccc2)cc(OC)c1O [CR8, (E,E)-2-(Phenylethylamido)-3-(3,5-dimethoxy-4-hydroxystyryl)acrylonitrile]
promoting myelopoiesis [7]: capable of promoting myelopoiesis

COc1cc(/C=C/C=C(\C#N)C(=O)NCc2ccc(O)c(O)c2)cc(OC)c1O [CR11, (E,E)-2-(3,4-Dihydroxybenzylaminocarbonyl)-3-(3,5-dimethoxy-4-hydroxystyryl)acrylonitrile]
CFU-C colony formation (normal bone marrow cells [1]; 10 μM, 14 days): elevated colony numbers slightly | CFU-C colony formation (normal bone marrow cells [1]; 20 μM, 14 days): significantly increased | toxicity to normal bone marrow cells (normal bone marrow cells [1]; 14 days): minimal toxicity | number of CFU-GM or CFU-C colonies (normal bone marrow cells [1]): effective in increasing | transformed cell growth (transformed cell): do not promote | normal splenic granulocytes (mice [5]): tremendous increase | non-specific damage to the animal (mice [5]): did not result in detectable non-specific damage | white blood cells in the peripheral blood (mice [6]): Increased numbers | white blood cell counts (mice [6]): significantly increased | promoting myelopoiesis [7]: capable of promoting myelopoiesis

N#C/C(=C\C=C\c1ccccc1)C(=O)NCc1ccc(O)c(O)c1 [CR19, (E,E)-2-(3,4 Dihydroxybenzylaminocarbonyl)-3-styrylacrylonitrile]
CFU-C colony formation (normal bone marrow cells [1]; 2.5 μM, 14 days, FIG. 8): significantly increased | number of CFU-GM or CFU-C colonies (normal bone marrow cells [1]): effective in increasing | transformed cell growth (transformed cell): do not promote | promoting myelopoiesis [7]: capable of promoting myelopoiesis

COc1cc(/C=C/C=C(\C#N)C(=O)NCc2ccccc2)ccc1O [CR56, (E,E)-2-(benzylaminocarbonyl)-3-(3-methoxy-4-hydroxystyryl)acrylonitrile]
promoting myelopoiesis [7]: capable of promoting myelopoiesis

B1: G-CSF: recombinant human G-CSF (Granulocyte-Colony Stimulating Factor), injected as positive control (protein, UniProt P09919 31-207, looked up)
Granulocyte …: TPLGPASSLPQSFLLKCLEQVRKIQGDGAALQEKLVSECATYKLCHPEELVLLGHSLGIPWAPLSSCPSQALQLAGCLSQLHSGLFLYQGLLQALEGISPELGPTLDTLQLDVADFATTIWQQMEELGMAPALQPTQGAMPAFASAFQRRAGGVLVASHLQSFLEVSYRVLRHLAQP
white blood cell counts (mice [6]): significantly increased
